# Assay results published in patent publication US20020177594A1, “Inhibitors of histone deacetylase” (priority 2001, published 2002).
row,Compound,melting point [°C]
1,"O=C(NCCCCCC(=O)C(F)(F)F)OCC1c2ccccc2-c2ccccc21 [Example 89, 9H-fluoren-9-ylmethyl 7,7,7-trifluoro-6-oxoheptylcarbamate]",83 to 88
2,"O=C(CCCCCCSc1ccccc1)c1ncco1 [Example 102, 1-(1,3-oxazol-2-yl)-7-(phenylsulfanyl)-1-heptanone]",39 to 40
3,"O=C(CCCCCCS(=O)(=O)c1ccccc1)c1ncco1 [Example 103, 1-(1,3-oxazol-2-yl)-7-(phenylsulfonyl)-1-heptanone]",55 to 56
4,"O=C(CCCCCCSc1ccc2ccccc2c1)c1ncco1 [Example 104, 7-(2-naphthylsulfanyl)-1-(1,3-oxazol-2-yl)-1-heptanone]",65 to 66
5,"O=C(CCCCCCS(=O)(=O)c1ccc2ccccc2c1)c1ncco1 [Example 105, 7-(2-naphthylsulfonyl)-1-(1,3-oxazol-2-yl)-1-heptanone]",75 to 76
6,"CNC(=O)C(=O)CCCCCCSc1ccc2ccccc2c1 [Example 106, N-methyl-8-(2-naphthylsulfanyl)-2-oxooctanamide]",94 to 95
7,"CNC(=O)C(=O)CCCCCCS(=O)(=O)c1ccc2ccccc2c1 [Example 107, N-methyl-8-(2-naphthylsulfonyl)-2-oxooctanamide]",108 to 109
8,"CNC(=O)C(=O)CCCCCCSc1ccc(-c2ccccc2)cc1 [Example 108, 8-((1,1′-biphenyl)-4-ylsulfanyl)-N-methyl-2-oxooctanamide]",131 to 132
9,"O=C(NCCCCCCC(=O)c1ncco1)c1cc2ccccc2[nH]1 [Example 110, N-(7-(1,3-oxazol-2-yl)-7-oxoheptyl)-1H-indole-2-carboxamide]",153 to 156
10,"O=C(NCCCCCC(=O)c1ncco1)c1cc2ccccc2[nH]1 [Example 111, N-(6-(1,3-oxazol-2-yl)-6-oxohexyl)-1H-indole-2-carboxamide]",176 to 179
11,"CC(=O)C(=O)CCCCCCOc1ccc(-c2ccccc2)cc1 [Example 113, 9-((1,1′-biphenyl)-4-yloxy)-2,3-nonanedione]",110 to 111
12,"CNC(=O)C(=O)CCCCCCSc1nc(-c2ccccc2)cs1 [Example 183, N-methyl-2-oxo-8-((4-phenyl-1,3-thiazol-2-yl)thio)octanamide]",107 to 108
13,"CNC(=O)C(=O)CCCCCCSc1nc2ccccc2s1 [Example 184, 8-(1,3-benzothiazol-2-ylthio)-N-methyl-2-oxooctanamide]",83 to 84
14,"CNC(=O)C(=O)CCCCCCc1csc(-c2ccccc2)n1 [Example 196, N-methyl-2-oxo-8-(2-phenyl-1,3-thiazol-4-yl)octanamide]",70 to 72
15,"CNC(=O)C(=O)CCCCCO/N=C/c1ccc(-c2ccccc2)cc1 [Example 198, 7-((((1E)-1,1′-biphenyl-4-ylmethylidene)amino)oxy)-N-methyl-2-oxoheptanamide]",86 to 87
16,"CNC(=O)C(=O)CCCCCCc1cnc(-c2ccccc2)o1 [Example 199, N-methyl-2-oxo-8-(2-phenyl-1,3-oxazol-5-yl)octanamide]",78 to 80
17,"CNC(=O)C(=O)CCCCCCc1cnc(-c2ccc(Br)cc2)o1 [Example 217, 8-(2-(4-bromophenyl)-1,3-oxazol-5-yl)-N-methyl-2-oxooctanamide]",90 to 92
18,"CNC(=O)C(=O)CCCCCCc1csc(-c2ccc(Cl)cc2)n1 [Example 218, 8-(2-(4-chlorophenyl)-1,3-thiazol-4-yl)-N-methyl-2-oxooctanamide]",77 to 81
